The text below walks through data of PubChem BioAssay (NCI).

Assay in all cases: NCI tumour cell line growth inhibition, 48 h
Assay [1] has as its system COLO 205 colon.
Assay [2] concerns HOP-62 NSCLC.
Assay [3] relates to K-562 leukemia.
Assay [4] relates to OVCAR-8 ovarian.
In assay [5] the test system is SK-MEL-2 melanoma.
Assay [6] concerns SK-MEL-28 melanoma.
Assay [7] deals with SN12C renal.
Assay [8] concerns U251 CNS.
The test system of assay [9] is UO-31 renal.
For assay [10], the system named is SK-OV-3 ovarian.

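In this assay, cells in 96-well plates receive the compound at five concentrations for 48 hours. Endpoints are linearly interpolated between the surrounding concentrations. Here, GI50 denotes the concentration required for 50% inhibition of growth. The concentration for full growth arrest is given as TGI.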

As to `O=C(NCCNc1nccc(-c2c(-c3cccc(O)c3)nc3sccn23)n1)Nc1cccc(C(F)(F)F)c1`, the GI50 in assay [1] is 3.36 µM; in assay [2], 8.33 µM; in [3] it was 3.42 µM; in assay [4], 3.56 µM; in [5], 2.8 µM; in assay [6], 2.68 µM. For the same compound, the results for the GI50 in assay [7], in [8] and in assay [9] were 3.42 µM, 4.95 µM and 3.25 µM, respectively. Also, the TGI came to 12 µM in [1]; 23.4 µM in assay [2]; 57.1 µM in assay [3]; 11 µM in assay [4]; 6.07 µM in [5]; 20 µM in assay [7]. The TGI in assay [8] amounted to 23.6 µM; in assay [9], 16.8 µM.
`CC(=O)N1CC(=O)NC1=S`: the TGI in assay [1], in assay [2], in assay [3], in [4], in assay [5] and in [6] was over 100 µM in each case. The TGI in assay [10], in [7], in [8] and in assay [9] was over 100 µM each time.
For `CSc1ccc(-c2cc(-c3nc4ccccc4[nH]3)nc(N)c2C#N)cc1`, the TGI is 34.7 µM in [1]; 42.1 µM in assay [2]; 58.6 µM in assay [3]; over 100 µM in assay [4]; 34.2 µM in [5]; 53.2 µM in assay [6]. Also, the TGI in assay [10] and in [7] was over 100 µM throughout.
Consider `Cc1c2cc[n+](C)cc2c(C)c2c1[nH]c1ccc(Cl)cc12`, for which the TGI in assay [1] was 10.9 µM; in assay [2] it was 6.95 µM; in [3] it was 45.5 µM; in assay [4] it was 15.5 µM; in assay [5], 9.6 µM; in assay [6], 16.5 µM. Moreover, the TGI in assay [10] stood at 53.3 µM; in assay [7], 3.42 µM; in assay [8], 1.15 µM; in assay [9], 42.8 µM.
As to `N#CCCOCN(CO)c1nc(N(CO)COCCC#N)nc(N(CO)COCCC#N)n1`, the TGI in assay [1] was 32.3 µM; in assay [2], over 100 µM; in assay [3], 61.2 µM; in assay [4], 34.7 µM; in [5], 38.6 µM; in assay [6], 38.8 µM. Further, the TGI is over 100 µM in assay [10], 44.2 µM in assay [7], over 100 µM in assay [8] and 43.2 µM in assay [9].
In the case of `C=Cc1cc(OC)c2c(c1)c(=O)oc1c2cc(OC)c2c(O)ccc(C3OC(C)C(O)C(C)(O)C3O)c21` (stereo unspecified), the TGI in assay [1] is 0.409 µM; in assay [3], 0.947 µM. The GI50 in assay [2] is 9.67e-05 µM; in assay [3] it was 0.00037 µM; in assay [4] it was 0.000476 µM; in assay [5], 0.00134 µM; in assay [10], 0.000565 µM; in assay [7], 0.00149 µM. In addition, the GI50 is 0.000187 µM in [8] and 0.00184 µM in assay [9].
As for `CN=C(N)/N=C(\N)Nc1cc2ccccc2c2ccccc12`, the TGI in [1] worked out at 28.2 µM; in [2], 33.4 µM; in assay [3] it was 44.5 µM; in assay [4], 33.8 µM; in assay [5], 32.3 µM; in assay [6], 34.1 µM. The TGI in assay [10] worked out at 32.9 µM; in assay [7], 27.2 µM; in assay [8], 28.5 µM; in assay [9] it was 27.4 µM.
`CC(C)(O)CO/N=C1\C(c2c(O)[nH]c3ccccc23)=Nc2ccccc21`: the TGI in assay [1] is 2.29 µM; in assay [2], 16.4 µM; in assay [3], over 100 µM; in assay [4] it was over 44.4 µM; in assay [5], 3.2 µM; in assay [6], over 46.2 µM. Besides, the TGI in assay [10] was 2.05 µM; in assay [7] it was over 80.1 µM; in assay [8], over 68.4 µM; in [9], 5.09 µM.
In the case of `Cc1c(NC(=O)c2cc([N+](=O)[O-])cc([N+](=O)[O-])c2)c(=O)n(-c2ccccc2)n1C`, the TGI is 52.2 µM in [1]; over 100 µM in assay [2]; over 100 µM in assay [3]; over 100 µM in assay [4]; over 100 µM in [5]; over 100 µM in assay [6]. The TGI in assay [10], in assay [7], in assay [8] and in assay [9] was over 100 µM each time.
For the compound `NC(=O)Nc1ccc(C(=O)NCCCNC(=O)c2ccc(NC(N)=O)cc2)cc1`, the TGI in assay [1], in assay [2], in assay [3], in assay [4], in [5] and in assay [6] was over 100 µM each time. Also, the TGI in [8] and in assay [9] was over 100 µM each time.
As for `COc1c(O)c(O)c2c(c1O)C(=O)c1cc(C)cc(O)c1C2=O`, the TGI in assay [1] is 93.2 µM; in [2] it was over 100 µM; in assay [3], 98.5 µM; in assay [4], over 83.3 µM; in assay [5], over 100 µM; in assay [6] it was over 100 µM. For the same compound, the TGI in [10] was over 80 µM; in [7] it was over 100 µM; in assay [8], over 100 µM; in [9], over 100 µM.
`Cc1ccc([N+](=O)[O-])cc1S(=O)(=O)Nc1ccc(C2=NN(C(=O)c3ccccc3)C(c3cccs3)C2)cc1` (stereo unspecified): the TGI in assay [1] is 32.8 µM; in assay [2], 78.3 µM; in assay [3] it was over 100 µM; in assay [4], over 100 µM; in [5] it was 39.5 µM; in assay [6], over 100 µM. Also, the TGI is 82.5 µM in assay [10], 66.3 µM in [7], over 100 µM in [8] and over 100 µM in assay [9].
Consider `COc1ccccc1/C=C/c1c(N)ncnc1Nc1cccc(Cl)c1`, for which the TGI in assay [2] was 40 µM; in [3], over 100 µM; in [4] it was over 100 µM; in assay [5] it was 36.5 µM; in [6], 36.4 µM; in assay [7] it was 30.9 µM. Besides, the TGI is 34.4 µM in [8] and 57.1 µM in assay [9].
Consider `Cc1ccc2ccc3ccc(C)nc3c2n1`, for which the TGI in assay [1], in assay [2], in [3], in [4], in assay [5] and in [6] was over 100 µM throughout. Also, the TGI in assay [10], in assay [7], in [8] and in assay [9] was over 100 µM throughout.
